Experimental data reported in patent US20160046904A1, “Method For Culturing Hepatoblast-Like Cells And Culture Product Thereof” (NATIONAL INSTITUTES OF BIOMEDICAL INNOVATION, HEALTH AND …, priority 2013, published 2016).

Assays:
[1] = tested on: HBCs derived from ES cells (H9); test: ALB/CK7 colony count of HBCs cultured on laminin-coated culture dishes (immunostaining); format: cell-based, human; conditions: HBCs seeded at 200 cells/cm^2 on laminin-coated dish, medium 3, 5 days after seeding
Protocol: (§1) In Example 1 and Comparative Example 1, with regard to HBCs derived from ES cells obtained in Reference Example 2, properties of cells treated with laminins were confirmed. The coating treatment was performed on cell culture dishes by using various types of human laminins with different isoforms (laminin 111 (LN111), laminin 211 (LN211), laminin 411 ([…]), and laminin 511 (LN511)). The coating treatment was conducted by preparing 20 μg/ml of each Laminin Coating Solution, adding the Laminin Coating Solution to each well at 5 μg/cm^2, and leaving the cell culture dishes at room temperature for 1 hour or more.
In Example 2 and Comparative Example 2, HBCs derived from ES cells (H9) obtained in Reference Example 2 were seeded in each well of various types of laminin-coated culture dishes at 200 cells/cm^2 in a similar manner to Example 1 and Comparative Example 1, the HBCs were cultured by using the medium 3, and the expressions of ALB and CK7 by cultured cells were confirmed. The HBCs were fixed by using a 4% paraformaldehyde solution 5 days after seeding the HBCs, immunostaining was performed, and thereafter, the numbers of colonies which were ALB positive (+)/CK7 positive (+), ALB positive (+)/CK7 negative (−) and ALB negative (−)/CK7 […] were counted. When the cells were cultured in the LN111-coated culture dish, the highest number of the ALB positive (+)/CK7 positive (+) colonies, which were colonies of hepatoblast-like cells, was able to be confirmed.

[2] = tested on: HBCs derived from ES cells; test: Proliferation of HBCs on various laminin-coated culture dishes; format: cell-based, human; conditions: attached HBCs cultured for 7 days; compared among LN111, LN211, LN411, LN511 coated dishes (FIG. 8)
Protocol: as §1
(§2) Next, the cells on day 9 after treated by the same procedure as in Reference Example 2 were seeded on each well of various types of laminin coated culture dishes at 7.5×10^4 cells/cm^2, the medium was exchanged after 15 minutes, and cells attached to the dishes were used as HBCs and cells not attached to the dishes were used as NHBCs (see FIG. 5). With regard to cells before passage (the cell population which contained both HBCs and NHBCs: before), HBCs, and NHBCs, the expressions of integrin α6 (ITGA6) and integrin β1 (ITGB1) were confirmed. As a result, almost all cells of HBCs were confirmed to be co-positive (FIG. 7). The HBCs attached to the dishes were each further cultured for 7 days. […]

[3] = tested on: HBCs derived from ES cells; test: AFP expression of cells cultured on various laminin-coated culture dishes; format: cell-based, human; conditions: cells cultured on laminin-coated dish, compared with cells immediately after passage (P0) (FIG. 9)
Protocol: as §1, §2

[4] = tested on: HBCs derived from ES cells (H9) and HBCs derived from iPS cells (Dotcom); test: Repeated passage (15 times) of HBCs on LN111-coated culture dish: cell number and AFP flow cytometry; format: cell-based, human
Protocol: In Example 3, the proliferative capacities of HBCs derived from ES cells (H9) obtained in Reference Example 2 and HBCs derived from iPS cells (Dotcom) generated by the same procedure were confirmed. The cells derived from ES cells or those derived from iPS cells on day 9 obtained by treating the cells by the same procedure as in Reference Example 2 were seeded in each well of the LN111-coated culture dish at 7.5×10^4 cells/cm^2, and the medium was exchanged after 15 minutes (the number of times of passage was 0, on day 9). After that, the cells were cultured for from 6 days to 7 days with the medium being exchanged every day, a cell suspension was prepared so that the number of cells was 7.5×10^4 cells/cm^2, and the cells were passaged on the LN111-coated culture dish. Such passage operations were performed 15 times.

[5] = tested on: HBCs derived from ES cells (H9); test: Differentiation induction of LN111-maintained HBCs to hepatocytes (HGF, OsM, DEX on Matrigel); format: cell-based, human; conditions: HBC P10 maintained on LN111 vs HBC P0; 14 days differentiation
Protocol: In view of the foregoing, in Example 5, HBCs (H9) with the number of passages of 0 (HBC P0), HBCs (H9) with the number of passages of 10 (HBC P10), and HBCs derived from a single cell (HBC clone) were cultured in a medium containing HGF, OsM (20 ng/ml), and DEX (10^−6 M) on Matrigel for 14 days, and the expression of each of marker genes before and after the differentiation induction treatment into liver by HGF, OsM, and DEX was confirmed. Clone cells were obtained by seeding cells on a culture dish at 200 cells/cm^2. The expression of each of gene markers was confirmed by real-time RT-PCR. Commercially available primer sets and reagents were used for real-time RT-PCR measurement. […]
Each of relative expression levels of marker genes of mature hepatocytes was confirmed by defining the expression level by human frozen hepatocytes cultured for 48 hours after being seeded on a culture dish as 1. […] It was confirmed that the differentiation rate into mature hepatocytes of hepatocytes obtained by differentiation induction on the HBCs (H9) with the number of passages of 10 (HBC P10) was higher than that of the hepatocytes obtained by differentiation induction on the HBCs (HBC P0), also from the ASGR1 positive cell rates analyzed by flow cytometry (FIG. 16A) and the amounts of ALB secretion and Urea secretion (FIGS. 16B and 16C).

[6] = tested on: HBCs derived from ES cells (H9); test: Differentiation induction of LN111-maintained HBCs to bile duct epithelial cells (EGF, ILGF2, collagen gel); format: cell-based, human; conditions: HBC P10 maintained on LN111 vs HBC P0; 14 days differentiation
Protocol: Specifically, in Example 6, HBCs (H9) without passage (HBC P0), HBCs passaged 10 times (HBC P10), and HBCs derived from a single cell (clone) were embedded in collagen gel by using a medium containing EGF (50 ng/ml) and ILGF2 (20 ng/ml), and were cultured for 14 days. Then, the expression of each of marker genes before and after the differentiation induction treatment to a bile duct by EGF and ILGF2 was confirmed. The expression was confirmed by a RT-PCR technique (FIG. 17). Commercially available primer sets and reagents were used for RT-PCR measurement. SOX9 and Type IV collagen are markers of bile duct epithelial cells, and ALB and αAT are markers of mature hepatocytes.
Each of relative expression levels of marker genes of bile duct epithelial cells and mature hepatocytes was confirmed by defining the expression level in cells of […] before being subjected to the differentiation induction as 1. The expressions of markers of bile duct epithelial cells were increased by the differentiation induction treatment. In addition, the expression levels of bile duct marker genes (SOX9 and Type IV collagen) by bile duct epithelial cells which were induced to differentiate from HBC P10 were higher than those which were induced to differentiate from HBC P0 (FIG. 17).

[7] = tested on: HBCs from human ES cells (H9); test: Marker positive rates of HBCs passaged 8 times on LN111- or LN111E8-coated culture dish (flow cytometry); format: cell-based
Protocol: By the same procedure as in Example 9, HBCs were seeded to each well of various types of laminin coated culture dishes at 7.5×10^4 cells/cm^2 by using a LN111- or LN111E8-coated culture dish, and the medium was exchanged after 15 minutes (the number of passages of 0, day 9). After that, the cells were cultured for from 6 days to 7 days with the medium being exchanged every day, and a cell suspension was prepared so that the number of cells was 7.5×10^4 cells/cm^2. Then, the cells were passaged on the LN111-coated culture dish or the LN111E8-coated culture dish. At the time when such passage operations were repeated 8 times (P8), the positive rate of AFP (%) was confirmed by flow cytometry analysis. […] In addition, also with regard to markers other than AFP (CD133, EpCAM, ALB, CK7, and CK19), their positive rates were confirmed by flow cytometry analysis at the time when the passage culture was repeated up to 8 times (P8).

| Substance | number of ALB+/CK7+ colonies [1] | number of ALB+/CK7− colonies [1] | number of ALB−/CK7+ colonies [1] | proliferation rate of HBCs [2] | expression of AFP [3] | AFP positive cells ([4]; HBC P1, P10, P15, flow cytometry (FIG. 11)) | proliferation of cultured cells over passages ([4]; passage every 6 to 7 days, 15 passages (FIG. 10)) | differentiation efficiency and differentiation ability to hepatocytes [5] | differentiation ability to bile duct epithelial cells [6] | positive rate of AFP after passage ([7]; passaged 8 times (P8) (FIG. 24)) | positive rates of markers other than AFP (CD133, EpCAM, ALB, CK7, CK19) ([7]; passaged 8 times (P8) (FIG. 25)) |
| --- | --- | --- | --- | --- | --- | --- | --- | --- | --- | --- | --- |
| LN111: human recombinant laminin 111 (α1β1γ1), used to coat cell culture dishes | 82 | 2 | 5 | highest | expressed AFP in a similar manner to a group of cells immediately after passage (P0) | high expression rates of AFP regardless of the number of passages | continued to proliferate even after passaged 15 times | improved | improved | expressions of AFP were maintained | expressions of all markers were maintained |
| LN511: human recombinant laminin 511, comparative dish coating | 14 | 2 | 36 |  |  |  |  |  |  |  |  |
| LN211: human recombinant laminin 211, comparative dish coating | 25 | 3 | 12 |  |  |  |  |  |  |  |  |
| LN411: human recombinant laminin 411, comparative dish coating | 12 | 6 | 31 |  |  |  |  |  |  |  |  |
